Measured values taken from patent US20090005250A1, “Substituted 2,4-diamino-1,3,5-triazines, processes for their use as herbicides and crop growth regulators” (Bayer CropScience AG, priority 2006, published 2009).

Tests used:
[1] = tested on: harmful plants such as Sinapis alba, Echinochloa crus-galli, Lolium multiflorum, Stellaria media, Cyperus iria, Amaranthus retroflexus, Setaria viridis, Avena …; assay: Post-emergence herbicidal action (greenhouse pot test); assay type: in vivo, mono- and dicotyledonous weeds; settings: application rate of 500 g and less of active substance per hectare; treated at three-leaf stage; scored visually after approx. 3 to 4 weeks
Protocol: Seeds or rhizome pieces of mono- and dicotyledonous weeds were placed in sandy loam in plastic pots, covered with soil and grown in a greenhouse under good growth conditions. Three weeks after the sowing, the test plants were treated at the three-leaf stage. The inventive compounds formulated as spray powders or as emulsion concentrates were sprayed onto the green plant parts in various dosages with an application rate of from 600 to 800 l/ha of water (converted). After the test plants had been left to stand in the greenhouse under optimal growth conditions for approx. 3 to 4 weeks, the action of the preparations was scored visually in comparison to untreated controls. The inventive compositions also had good post-emergence herbicidal activity against a wide spectrum of economically important gramineous and broadleaf weeds. For example, examples no.

[2] = tested on: harmful plants such as Stellaria media, Lolium multiflorum, Amaranthus retroflexus, Sinapis alba, Avena sativa and Setaria viridis; assay: Pre-emergence herbicidal action (greenhouse pot test); assay type: in vivo, mono- and dicotyledonous weed plants; settings: application rate of 500 g or less of active substance per hectare; scored visually after 3 to 4 weeks in comparison to untreated controls
Text: Seeds or rhizome pieces of mono- and dicotyledonous weed plants were placed in sandy loam in plastic pots and covered with soil. The inventive compounds, which have been formulated in the form of wettable powders or emulsion concentrates, were then applied to the surface of the covering soil as an aqueous suspension or emulsion in different dosages with an application rate of from 600 to 800 l/ha of water (converted). After the treatment, the pots were placed in a greenhouse and kept under good growth conditions for the weeds. The plant or emergence damage is scored visually after the emergence of the test plants after an experiment time of from 3 to 4 weeks in comparison to untreated controls. […] For example, the examples no.

What does the source list for `CC(=O)Nc1nc(NC(C2CC2)C2CC2)nc(C(C)(C)F)n1` [Example 2-199]?
herbicidal action, post-emergence method [1]: very good herbicidal action; herbicidal action, pre-emergence method [2]: very good herbicidal action

How did the “herbicidal action, pre-emergence method” value [2] turn out when `Cc1nc(N)nc(NC(C2CC2)C2CC2)n1` [Example 1-98] was run?
Its value is “very good herbicidal action”.

`Nc1nc(NC(C2CC2)C2CC2)nc(C2CC2)n1` [Example 1-256] was tested. Which “herbicidal action, post-emergence method” value [1] did it give?
The value was “very good herbicidal action”.

With `CC(C)C(Nc1nc(N)nc(C(C)(C)F)n1)C1CC1` (stereo not shown) [Example 1-475] as the molecule, how does the “herbicidal action, post-emergence method” value [1] read?
The value was “very good herbicidal action”.

And the “herbicidal action, pre-emergence method” value [2]?
Its value is “very good herbicidal action”.

For `CC(C)(F)c1nc(N)nc(NC(C2CC2)C2CC2)n1` [Example 1-493], which “herbicidal action, post-emergence method” value [1] is on record?
The value was “very good herbicidal action”.

And the “herbicidal action, pre-emergence method” value [2]?
The value was “very good herbicidal action”.

How did the “herbicidal action, pre-emergence method” value [2] turn out when `CC(C)(F)c1nc(N)nc(NC(C2CCC2)C2CCC2)n1` [Example 1-499] was run?
The value was “very good herbicidal action”.

For `CCC(F)c1nc(N)nc(NC(C2CC2)C2CC2)n1` (stereo not shown) [Example 1-414], which “herbicidal action, post-emergence method” value [1] is on record?
Its value is “very good herbicidal action”.

`CC(C)(F)c1nc(N=CN2CCOCC2)nc(NC(C2CC2)C2CC2)n1` [Example 6-199] was tested. Which “herbicidal action, post-emergence method” value [1] did it give?
The value was “very good herbicidal action”.

And the “herbicidal action, pre-emergence method” value [2]?
Its value is “very good herbicidal action”.

`CC(F)c1nc(N)nc(NC(C(C)C)C2CC2)n1` (stereo not shown) [Example 1-317] was tested. Which “herbicidal action, post-emergence method” value [1] did it give?
Its value is “very good herbicidal action”.

And the “herbicidal action, pre-emergence method” value [2]?
Its value is “very good herbicidal action”.

What does the source list for `CN(C)C=Nc1nc(NC(C2CC2)C2CC2)nc(C(C)(C)F)n1` [Example 5-201]?
herbicidal action, post-emergence method [1]: very good herbicidal action; herbicidal action, pre-emergence method [2]: very good herbicidal action

`Nc1nc(NC(C2CC2)C2CC2)nc(C2(F)CC2)n1` [Example 1-572] was tested. Which “herbicidal action, post-emergence method” value [1] did it give?
Its value is “very good herbicidal action”.

What about the “herbicidal action, pre-emergence method” value [2] of the same molecule?
Its value is “very good herbicidal action”.

With `CCC(F)c1nc(N)nc(NC(C2CCC2)C2CCC2)n1` (stereo not shown) [Example 1-420] as the molecule, how does the “herbicidal action, post-emergence method” value [1] read?
Its value is “very good herbicidal action”.

And the “herbicidal action, pre-emergence method” value [2]?
The value was “very good herbicidal action”.

How did the “herbicidal action, post-emergence method” value [1] turn out when `CC(C)(F)c1nc(N)nc(NC2CCC3CC32)n1` (stereo not shown) [Example 7-79] was run?
The value was “very good herbicidal action”.

What about the “herbicidal action, pre-emergence method” value [2] of the same molecule?
The value was “very good herbicidal action”.

Which “herbicidal action, post-emergence method” value [1] does the source give for `Nc1ncnc(NC(C2CC2)C2CC2)n1` [Example 1-19] here?
The value was “very good herbicidal action”.

And the “herbicidal action, pre-emergence method” value [2]?
Its value is “very good herbicidal action”.

What does the source list for `CC(F)c1nc(N)nc(NC(C2CC2)C2CC2)n1` (stereo not shown) [Example 1-335]?
herbicidal action, post-emergence method [1]: very good herbicidal action; herbicidal action, pre-emergence method [2]: very good herbicidal action

What does the source list for `Nc1nc(NC(C2CC2)C2CC2)nc(C(F)F)n1` [Example 1-651]?
herbicidal action, post-emergence method [1]: very good herbicidal action; herbicidal action, pre-emergence method [2]: very good herbicidal action
